This note sets out measurements from PubChem BioAssay AID602267 (Broad Institute, 2012).

Calls of active or inactive are those of the source.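 How the source made its calls: active means signal falls with dose and the fitted half-maximal concentration is at or below twice the top valid tested dose; inconclusive means flat curve with 30 to 70% inhibition, or poor fit; inactive means wrong direction, flat within 30%, or potency beyond limit.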

One test addresses Golgi-associated PDZ and coiled-coil motif-containing protein (Homo sapiens) (UniProt Q9HD26). The test is described as follows: blockers of CAL PDZ ligand groove binding – biochemical, fluorescence polarization, untagged CAL PDZ, cherry-pick, dose response (AID 602267). To be noted: purified CAL PDZ, TMR-peptide fluorescence polarization, 1 h.
Consider `O=C(O)CSc1cc(NS(=O)(=O)c2ccc(Br)cc2)c2ccccc2c1O`, for which the AC50 was 29.7 µM.

`O=C(O)CSc1cc(NS(=O)(=O)c2ccc(Cl)cc2)c2ccccc2c1O`: the AC50 is 32.9 µM.

The same test, now with this note: purified CAL PDZ, TMR-peptide fluorescence polarization, 1 h; at 16 µM (top of the series).
`O=c1[nH]c(CN2CC=C(c3ccccc3)CC2)nc2scc(-c3ccccc3)c12`: the “activity change, negative = inhibition” value was “inactive”.

Still in this test, the particulars now being: purified CAL PDZ, TMR-peptide fluorescence polarization, 1 h; at 50 µM (top of the series).
As to `CCN(C(=O)CSc1ncccc1C(=O)O)C1CCCCC1`, the “activity change, negative = inhibition” value is “inactive”.

`CCOC(=O)C1CCN(C(=O)C2CC(=O)N(c3ccc4c(c3)OCCO4)C2)CC1` (stereo unspecified): the “activity change, negative = inhibition” value is “inactive”.

Take `Cc1cccc(-n2nc(C)c3c2NC2=C(C(=O)CCC2)C3c2ccccn2)c1` (stereo unspecified): the “activity change, negative = inhibition” value is “inactive”.

As to `Cc1ccc(C(=O)NC(=S)N2CCN(c3cc(C)ccc3C)CC2)cc1`, the “activity change, negative = inhibition” value is “inactive”.

Turning to `COCC(=O)NNC(=O)c1ccc(OC)cc1`, the “activity change, negative = inhibition” value was “inactive”.

Regarding `Brc1cccc(CNCC2CCCO2)c1` (stereo unspecified), the “activity change, negative = inhibition” value is “inactive”.

On to `COc1ccc(CC(=O)N2CCC(CCC(=O)Nc3ccccc3)CC2)cc1`, for which the “activity change, negative = inhibition” value was “inactive”.

Consider `CCOC(=O)NC(=O)COC(=O)CCCSc1nc2ccccc2s1`, for which the “activity change, negative = inhibition” value was “inactive”.

As to `COc1ccc(-n2c(=S)[nH]c3c(sc(=S)n3-c3ccccc3)c2=O)c(OC)c1`, the “activity change, negative = inhibition” value was “inactive”.

As for `Cc1cc(NC(=O)CSc2nnc(-c3ccccc3)c(-c3ccccc3)n2)no1`, the “activity change, negative = inhibition” value is “inactive”.

Turning to `CN(C)S(=O)(=O)c1ccc(Cl)c(NC(=O)CSc2nnnn2-c2ccc(O)cc2)c1`, the “activity change, negative = inhibition” value was “inactive”.

Take `COc1ccc(OC)c(S(=O)(=O)NCCCn2ccnc2)c1`: the “activity change, negative = inhibition” value was “inactive”.

For the molecule `O=C(O)CCCC(=O)N1N=C(c2ccccc2)CC1c1ccc2c(c1)OCO2` (stereo unspecified), the “activity change, negative = inhibition” value is “inactive”.

Consider `COc1ccc(C(=O)NC2(C(F)(F)F)C(=O)Nc3c2c(=O)[nH]c(=O)n3CCc2ccc(OC)c(OC)c2)cc1` (stereo unspecified), for which the “activity change, negative = inhibition” value is “inactive”.

For `Cc1c(NC(=O)CN2CCC(C(N)=O)CC2)cccc1[N+](=O)[O-]`, the “activity change, negative = inhibition” value was “inactive”.

As to `COc1ccc(-c2nc3ccccc3o2)cc1OC`, the “activity change, negative = inhibition” value is “inactive”.

In the case of `Cc1cc(C)nc(CCNC(=O)c2cc(COc3c(C)cccc3C)on2)n1`, the “activity change, negative = inhibition” value is “inactive”.

As for `CC1CCCC(C)N1/N=C/c1ccc(N(C)C)cc1` (stereo unspecified), the “activity change, negative = inhibition” value is “inactive”.

Consider `COc1ccc(CNCCc2c[nH]c3ccccc23)c(OC)c1OC`, for which the “activity change, negative = inhibition” value is “inactive”.

`O=C1CSC(=Nc2ccccc2Cl)N1`: the “activity change, negative = inhibition” value is “inactive”.

As to `CC(C)CN1CCN(Cc2cccc3c2OCO3)CC1CCO` (stereo unspecified), the “activity change, negative = inhibition” value is “inactive”.

For `S=C(NCCc1ccccc1)NC1CCC(NC(=S)NCCc2ccccc2)CC1` (stereo unspecified), the “activity change, negative = inhibition” value was “inactive”.

`CC1(C2CC2)NC(=O)N(CC(=O)NCC(=O)Nc2ccc(F)c(F)c2F)C1=O` (stereo unspecified): the “activity change, negative = inhibition” value is “inactive”.

As to `COc1ccc(CC(=O)NCC2CCCN(Cc3cccc(SC)c3)C2)cc1` (stereo unspecified), the “activity change, negative = inhibition” value is “inactive”.

As to `Cc1ccc(CN(Cc2cccnc2)C(=S)Nc2cccc(Cl)c2C)cc1`, the “activity change, negative = inhibition” value is “inactive”.

Take `Cc1[nH]c2ccccc2c1C(=O)CSc1nc2ncc(Cl)cc2[nH]1`: the “activity change, negative = inhibition” value is “inactive”.

On to `COc1cccc(-c2cccc(NC(=O)C3CCN(Cc4ccc(CO)o4)CC3)c2)c1`, for which the “activity change, negative = inhibition” value is “inactive”.

`Cc1ccc2cc(C#N)c(N3CCCN(S(=O)(=O)c4ccccc4)CC3)nc2c1`: the “activity change, negative = inhibition” value is “inactive”.

With `O=C(COc1ccccc1)N1CCCCCCC1`, the “activity change, negative = inhibition” value was “inactive”.

With `N/C(=N\OC(=O)Cc1ccccc1[N+](=O)[O-])c1cccnc1`, the “activity change, negative = inhibition” value is “inactive”.

In the case of `CC1CCCCC1NCC(=O)NCc1ccc(F)cc1` (stereo unspecified), the “activity change, negative = inhibition” value is “inactive”.

Turning to `CC1CCCN(C(=O)Cc2cccc3ccccc23)C1` (stereo unspecified), the “activity change, negative = inhibition” value is “inactive”.

For `CC1CCC(NS(=O)(=O)c2ccc3c(c2)n(C)c(=O)c(=O)n3C)CC1` (stereo unspecified), the “activity change, negative = inhibition” value is “inactive”.

`c1cc(-c2nnc(-c3ccncc3)o2)ccn1`: the “activity change, negative = inhibition” value is “inactive”.

With `Cc1ccc(S(=O)(=O)N2CCN(C(=O)c3cc(=O)c4ccccc4o3)CC2)cc1`, the “activity change, negative = inhibition” value was “inactive”.

Turning to `CCC1C(=O)NCCN1C(=O)CCc1nnc(CCc2ccc(OC)cc2)o1` (stereo unspecified), the “activity change, negative = inhibition” value was “inactive”.

With `COc1ccc(CSc2ncnc3sccc23)cc1F`, the “activity change, negative = inhibition” value was “inactive”.

Regarding `O=C(NCc1ccccc1)C1CCCN(c2nc3ccsc3c(=O)s2)C1` (stereo unspecified), the “activity change, negative = inhibition” value is “inactive”.

Regarding `CCOC(=O)c1c(CN2CCOCC2)oc2ccc(OC(C)=O)cc12`, the “activity change, negative = inhibition” value is “inactive”.

For the molecule `O=C(Nc1ccc(Cl)cc1)c1ccc(CN2CCc3ccccc3C2)cc1`, the “activity change, negative = inhibition” value is “inactive”.

Regarding `COC(=O)N/N=C/c1sc(N2CCCCC2)nc1-c1cccs1`, the “activity change, negative = inhibition” value was “inactive”.

With `C/C(=N/N1CCN(c2ccccn2)CC1)c1ccc([N+](=O)[O-])cc1`, the “activity change, negative = inhibition” value was “inactive”.

Consider `Cn1c(=O)c2c(nc(-c3ccc(N(CCCl)CCCl)cc3)n2C)n(C)c1=O`, for which the “activity change, negative = inhibition” value is “inactive”.

On to `Cc1ccnc(SCC(=O)N2CCC(C(N)=O)CC2)n1`, for which the “activity change, negative = inhibition” value is “inactive”.

Consider `COc1ccc(C(CNC(=O)COc2ccccc2-c2ccccc2)N2CCOCC2)cc1` (stereo unspecified), for which the “activity change, negative = inhibition” value is “inactive”.

Consider `CCC(=O)c1cn(CC(=O)Nc2cccc(C)c2C)c2ccccc12`, for which the “activity change, negative = inhibition” value is “inactive”.

`COC(=O)C(C(=O)OC)c1ccc(N)cc1`: the “activity change, negative = inhibition” value was “inactive”.

With `CC(=O)c1ccc(S(=O)(=O)N2CCN(c3ccccc3F)CC2)cc1`, the “activity change, negative = inhibition” value is “inactive”.

On to `COc1ccc(CN2CN(C3CCCC3)CSC2=S)cc1`, for which the “activity change, negative = inhibition” value was “inactive”.

In the case of `C=CCn1c(NC(=O)c2ccco2)nc2ccccc21`, the “activity change, negative = inhibition” value is “inactive”.

Turning to `CN(Cc1nccn1C)C(=O)c1cc(COc2ccc3ncccc3c2)on1`, the “activity change, negative = inhibition” value is “inactive”.

In the case of `CC1CCN(CCCNC(=O)c2ccc3c(=O)n(Cc4ccc(Cl)cc4)c(=S)[nH]c3c2)CC1`, the “activity change, negative = inhibition” value is “inactive”.

In the case of `O=C(OCc1ccc(Br)cc1)c1cccnc1`, the “activity change, negative = inhibition” value is “inactive”.

For the molecule `CC(=O)Nc1cc(NC(C)=O)cc(C(=O)OCC(=O)Nc2ccc(S(=O)(=O)NC3=NCCCCC3)cc2)c1`, the “activity change, negative = inhibition” value is “inactive”.

For the molecule `CCC(C)NC(=O)C1CCCN(C(=O)Nc2ccc(F)cc2)C1` (stereo unspecified), the “activity change, negative = inhibition” value was “inactive”.

On to `CCN(CC(=O)Nc1cc(Cl)cc(Cl)c1)CC(=O)NC1CCS(=O)(=O)C1` (stereo unspecified), for which the “activity change, negative = inhibition” value was “inactive”.

As to `CCC(=O)c1ccc(N2CCC(C)CC2)c(F)c1`, the “activity change, negative = inhibition” value was “inactive”.

As for `CN(CC1CCCO1)S(=O)(=O)c1ccc(C(=O)Nc2ccc([N+](=O)[O-])cc2)cc1` (stereo unspecified), the “activity change, negative = inhibition” value was “inactive”.
